Reference: patent publication US20060019936A1 (priority 2004, published 2006)
“Also recorded” adds a separate entry of the source.

What was measured:
[1] = test system: LNCaP cells grown as a xenograft; test: LNCaP xenograft in nude mice; format: in vivo; conditions: seven weekly five-day cycles of 30 mg/kg IP
Description: The efficacy of 11β-dichloro was examined toward LNCaP cells grown as a xenograft in nude mice. […] Animals bearing LNCaP xenografts were treated with seven consecutive weekly five-day cycles of 30 mg 11β-dichloro/kg administered via IP injection.
Animal Studies. Four to six week old NIH Swiss nu/nu athymic male mice (25 gm) were obtained from the National Cancer Institute-Frederick Cancer Center (Frederick, Md.). Experiments were carried out under guidelines of the MIT Animal Care Committee. Animals were injected subcutaneously in the right flank with 5×10^6 LNCaP cells suspended in a solution of 50% PBS/50% Matrigel (Collaborative Research, Bedford, Mass.). Therapy commenced when a palpable tumor of approximately 4×4 mm formed (n=5 per treatment group). The 11β-dichloro compound was dissolved in a vehicle composed of cremophor EL, saline and ethanol (43:30:27). Tumor dimensions were measured with vernier calipers. Tumor volumes were calculated using the formula: π/6×larger diameter×(smaller diameter)^2. Statistical analyses were performed using a paired t-test. At the end of the study period, animals were euthanized with CO2. At the time of sacrifice, blood samples were taken from several animals in each group for a complete blood count, along with serum chemistry and liver function analyses. A complete necropsy was also performed, including histopathology on two animals from each group.

PARP = format: cell-based, human; conditions: 10 μM, LNCaP cells
4E-BP1 = test: Phosphorylation status of 4E-BP1 in LNCaP cells; format: cell-based, human
p70S6K = test: Phosphorylation status of p70S6K in LNCaP cells; format: cell-based, human; conditions: after addition to cells
[2] = test system: human colon adenocarcinoma cell line DLD-1; test: DLD-1 xenograft in nude mice; format: in vivo
p21 (WAF1/Cip1) = format: cell-based, human; conditions: LNCaP cells, 10 μM
LNCaP cells [3] = format: cell-based, human; conditions: LNCaP cells, single agent
AR from LNCaP cells = target: T1, AR from LNCaP cells (Homo sapiens, UniProt P10275, T878A); test: Competitive binding assay for the AR (relative binding affinity); conditions: dihydrotestosterone RBA=100
T1 construct: Whole cell extracts prepared from LNCaP and T47D cells were used as sources of the AR and PR respectively; endogenous in cells; host or cells: LNCaP whole cell extract

LNCaP cells [4] = format: cell-based, human
[5] = test system: engineered estrogen receptor ligand binding domain-positive HeLa cell line; test: ER ligand binding domain-positive HeLa xenograft in nude mice; format: in vivo
LNCaP cells [6] = test: Cell cycle analysis by flow cytometry; format: cell-based, human; conditions: LNCaP cells
LNCaP cells [7] = test: Annexin V staining and flow cytometry; format: cell-based, human; conditions: treatment for 15 h
[8] = Pharmacokinetics / plasma levels in mice
p27 (Kip1) = format: cell-based, human; conditions: LNCaP cells, 10 μM, up to 15 h
liver DNA = test: DNA adduct formation in liver of treated mice; format: in vivo; conditions: two hours post dosing
Description: A set of in vivo studies was performed to assess the stability and biodistribution of the 11β-dichloro compound in mice. These studies required formulation of the compound in a vehicle that would deliver the compound to the tissues following IP or IV administration. The vehicle was Cremophor EL:ethanol:saline (40:30:30 by volume). […] For 2 to 3 hours the compound was present above the […] concentration at which good differential toxicity in favor of killing LNCaP cells in culture was observed. There was also evidence that the intact molecule reached its intended biological target—cellular DNA.

LNCaP cells [9] = test: DNA fragmentation by agarose gel electrophoresis; format: cell-based, human; conditions: 10 μM, 24 h exposure
[10] = test system: LNCaP, PC3 and DU145 cells; test: Differential sensitivity of AR positive and AR negative cells; format: cell-based, human; conditions: dose of 10 μM
Description: AR positive LNCaP cells were 7-fold more sensitive than AR negative PC3 and DU145 cells at a dose of 10 μM. Investigations on similar molecules in which a ligand for the estrogen receptor (ER) was tethered to the same DNA damaging warhead, a similar (but slightly smaller) differential toxicity in favor of killing ER positive cells was observed.

p45 Skp2 = format: cell-based, human; conditions: LNCaP cells, 10 μM, up to 15 h
c-Myc = c-Myc protein levels in LNCaP cells; format: cell-based, human

T1 sequence (P10275 whole entry T878A): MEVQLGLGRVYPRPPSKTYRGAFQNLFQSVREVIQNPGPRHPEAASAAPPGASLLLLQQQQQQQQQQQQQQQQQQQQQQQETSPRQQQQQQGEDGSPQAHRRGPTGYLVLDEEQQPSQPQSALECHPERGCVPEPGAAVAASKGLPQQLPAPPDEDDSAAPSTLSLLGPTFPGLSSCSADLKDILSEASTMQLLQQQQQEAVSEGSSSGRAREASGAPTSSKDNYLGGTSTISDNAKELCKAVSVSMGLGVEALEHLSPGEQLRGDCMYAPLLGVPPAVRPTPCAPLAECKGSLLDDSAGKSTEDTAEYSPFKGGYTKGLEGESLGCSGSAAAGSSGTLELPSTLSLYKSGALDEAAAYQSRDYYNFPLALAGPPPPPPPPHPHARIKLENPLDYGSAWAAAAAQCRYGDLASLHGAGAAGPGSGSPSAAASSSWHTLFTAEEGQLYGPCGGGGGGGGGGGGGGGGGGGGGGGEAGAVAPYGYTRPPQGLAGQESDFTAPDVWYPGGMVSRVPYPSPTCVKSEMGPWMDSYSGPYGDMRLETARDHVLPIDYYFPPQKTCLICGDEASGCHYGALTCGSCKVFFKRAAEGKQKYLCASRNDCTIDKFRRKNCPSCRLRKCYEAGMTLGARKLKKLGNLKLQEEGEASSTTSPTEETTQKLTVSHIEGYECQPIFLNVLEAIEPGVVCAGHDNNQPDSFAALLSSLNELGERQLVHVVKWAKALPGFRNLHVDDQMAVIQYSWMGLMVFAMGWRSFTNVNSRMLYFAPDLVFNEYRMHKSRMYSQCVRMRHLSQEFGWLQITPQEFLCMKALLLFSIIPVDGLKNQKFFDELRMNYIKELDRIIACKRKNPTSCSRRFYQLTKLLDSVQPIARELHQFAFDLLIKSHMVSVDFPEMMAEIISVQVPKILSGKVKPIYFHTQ

CC12CC(CCCCCCNCCOC(=O)NCCCc3ccc(N(CCCl)CCCl)cc3)C3=C4CCC(=O)C=C4CCC3C1CCC2O (stereo not drawn) [Compound 11β-dichloro, 11β-{N-(2-(N-((N,N-bis-2-chloroethylaminophenyl)propyl)-carbamoyloxy)ethyl)aminohexyl}-17β-hydroxy-estra-Δ4(5),9(10)-3-one]
tumor growth of LNCaP xenograft [1]: inhibition of tumor growth | time to cleavage of PARP (PARP): ≤ 9 h | phosphorylation of 4E-BP1 (4E-BP1): rapid disappearance of phosphate groups | time to removal of the phosphate on Th389 of p70S6K (p70S6K): ≤ 30 min | tumor growth of DLD-1 xenograft [2]: Inhibition of tumor growth | initial change in levels of p21 (p21 (WAF1/Cip1)): initially decreased | increase in level of p21 (p21 (WAF1/Cip1); up to 15 h): 9 fold | apoptotic response (LNCaP cells [3]): LNCaP cells undergo apoptosis; also recorded: potent inducer of apoptosis and cell death; also recorded: activates an apoptotic response resulting in destruction of cells | RBA (Relative Binding Affinity) for the AR (AR from LNCaP cells): 33 | changes in LNCaP cell shape (LNCaP cells [4]): dramatic contraction and detachment | tumor growth of ER-LBD-positive HeLa xenograft [5]: Inhibition of tumor growth | cell cycle arrest (LNCaP cells [6]): did not arrest cells in a specific point in the cell cycle | concentration showing increased Annexin V staining (LNCaP cells [7]): > 5 µM | plasma levels ([8]; IP injection of radiolabeled compound, within 30 min): 30 to 40 µM | intact compound in plasma by HPLC ([8]; at 1 hour, along with several minor unidentified metabolites): lower concentrations | levels of p27 (p27 (Kip1)): increased | DNA adducts formed by the intact compound in liver (liver DNA): isolated from liver DNA of treated animals | DNA fragmentation (LNCaP cells [9]): DNA fragmentation occurs | sensitivity of AR positive LNCaP cells relative to AR negative PC3 and DU145 cells [10]: 7 fold | levels of Skp2 (p45 Skp2): decreased | levels of the c-Myc protein (c-Myc): decreased rapidly
